In the supplement of paper PMC10307832:

Experiments:
Test in all cases: relative viability (nuclei count vs DMSO), 5 days (fraction); higher = more cells survive
201T = system: 201T
How it was run: (§1)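 Five library-drug doses in √10 steps were combined with a fixed anchor-drug dose, or a single drug was given alone, by pin tool to lung cancer cell lines in 1536-well plates the day after seeding. Nuclei were stained and counted after 5 days. Relative viability is the nuclei count in treated wells over that in vehicle wells, taken as the median of duplicate plates.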

ABC-1 = system: ABC-1
How it was run: as §1

BEN = system: BEN
How it was run: as §1

HCC-366 = system: HCC-366
How it was run: as §1

HCC-44 = system: HCC-44
How it was run: as §1

HCC-78 = system: HCC-78
How it was run: as §1

LK-2 = system: LK-2
How it was run: as §1

LOU-NH91 = system: LOU-NH91
How it was run: as §1

NCI-H1355 = system: NCI-H1355
How it was run: as §1

NCI-H1666 = system: NCI-H1666
How it was run: as §1

NCI-H1734 = system: NCI-H1734
How it was run: as §1

NCI-H1755 = system: NCI-H1755
How it was run: as §1

NCI-H2347 = system: NCI-H2347
How it was run: as §1

NCI-H2405 = system: NCI-H2405
How it was run: as §1

NCI-H358 = system: NCI-H358
How it was run: as §1

NCI-H727 = system: NCI-H727
How it was run: as §1

NCI-H838 = system: NCI-H838
How it was run: as §1

## O=c1[nH]c2ccccc2n1C1CCN(CCCC(c2ccc(F)cc2)c2ccc(F)cc2)CC1 [Pimozide] + NC(=O)Nc1cc(-c2cccc(F)c2)sc1C(=O)N[C@H]1CCCNC1 [AZD7762] (partner 0.2 µM)
201T; first compound 0.08 µM
  relative viability: 0.602
201T; first compound 0.253 µM
  relative viability: 0.615
201T; first compound 0.8 µM
  relative viability: 0.541
201T; first compound 2.53 µM
  relative viability: 0.537
201T; first compound 8 µM
  relative viability: 0.652
ABC-1; first compound 0.253 µM
  relative viability: 0.775
ABC-1; first compound 0.8 µM
  relative viability: 0.817
ABC-1; first compound 2.53 µM
  relative viability: 0.583
ABC-1; first compound 8 µM
  relative viability: 0.509
BEN; first compound 0.08 µM
  relative viability: 0.762
BEN; first compound 0.253 µM
  relative viability: 0.753
BEN; first compound 0.8 µM
  relative viability: 0.618
BEN; first compound 2.53 µM
  relative viability: 0.713
BEN; first compound 8 µM
  relative viability: 0.886
HCC-366; first compound 0.08 µM
  relative viability: 0.263
HCC-366; first compound 0.253 µM
  relative viability: 0.258
HCC-366; first compound 0.8 µM
  relative viability: 0.211
HCC-366; first compound 2.53 µM
  relative viability: 0.246
HCC-366; first compound 8 µM
  relative viability: 0.253
HCC-44; first compound 0.08 µM
  relative viability: 1.01
HCC-44; first compound 0.253 µM
  relative viability: 0.992
HCC-44; first compound 0.8 µM
  relative viability: 0.849
HCC-44; first compound 2.53 µM
  relative viability: 0.98
HCC-44; first compound 8 µM
  relative viability: 0.971
HCC-78; first compound 0.08 µM
  relative viability: 0.547
HCC-78; first compound 0.8 µM
  relative viability: 0.607
HCC-78; first compound 2.53 µM
  relative viability: 0.55
HCC-78; first compound 8 µM
  relative viability: 0.6
LK-2; first compound 0.08 µM
  relative viability: 0.539
LK-2; first compound 0.253 µM
  relative viability: 0.438
LK-2; first compound 0.8 µM
  relative viability: 0.376
LK-2; first compound 8 µM
  relative viability: 0.417
LOU-NH91; first compound 0.08 µM
  relative viability: 0.713
LOU-NH91; first compound 0.253 µM
  relative viability: 0.746
LOU-NH91; first compound 0.8 µM
  relative viability: 0.776
LOU-NH91; first compound 2.53 µM
  relative viability: 0.778
LOU-NH91; first compound 8 µM
  relative viability: 0.778
NCI-H1355; first compound 0.08 µM
  relative viability: 0.757
NCI-H1355; first compound 0.253 µM
  relative viability: 0.732
NCI-H1355; first compound 0.8 µM
  relative viability: 0.701
NCI-H1355; first compound 2.53 µM
  relative viability: 0.641
NCI-H1355; first compound 8 µM
  relative viability: 0.761
NCI-H1666; first compound 0.08 µM
  relative viability: 0.803
NCI-H1666; first compound 0.253 µM
  relative viability: 0.831
NCI-H1666; first compound 0.8 µM
  relative viability: 0.76
NCI-H1666; first compound 2.53 µM
  relative viability: 0.747
NCI-H1666; first compound 8 µM
  relative viability: 0.881
NCI-H1734; first compound 0.08 µM
  relative viability: 0.573
NCI-H1734; first compound 0.253 µM
  relative viability: 0.558
NCI-H1734; first compound 0.8 µM
  relative viability: 0.487
NCI-H1734; first compound 2.53 µM
  relative viability: 0.511
NCI-H1734; first compound 8 µM
  relative viability: 0.485
NCI-H1755; first compound 0.08 µM
  relative viability: 0.727
NCI-H1755; first compound 0.253 µM
  relative viability: 0.42
NCI-H1755; first compound 0.8 µM
  relative viability: 0.47
NCI-H1755; first compound 2.53 µM
  relative viability: 0.533
NCI-H1755; first compound 8 µM
  relative viability: 0.46
NCI-H2347; first compound 0.08 µM
  relative viability: 0.782
NCI-H2347; first compound 0.253 µM
  relative viability: 0.689
NCI-H2347; first compound 0.8 µM
  relative viability: 0.723
NCI-H2347; first compound 2.53 µM
  relative viability: 0.736
NCI-H2347; first compound 8 µM
  relative viability: 0.744
NCI-H2405; first compound 0.08 µM
  relative viability: 0.741
NCI-H2405; first compound 0.253 µM
  relative viability: 0.716
NCI-H2405; first compound 0.8 µM
  relative viability: 0.673
NCI-H2405; first compound 2.53 µM
  relative viability: 0.608
NCI-H2405; first compound 8 µM
  relative viability: 0.426
NCI-H358; first compound 0.08 µM
  relative viability: 0.565
NCI-H358; first compound 0.253 µM
  relative viability: 0.67
NCI-H358; first compound 0.8 µM
  relative viability: 0.625
NCI-H358; first compound 2.53 µM
  relative viability: 0.508
NCI-H358; first compound 8 µM
  relative viability: 0.505
NCI-H727; first compound 0.08 µM
  relative viability: 0.496
NCI-H727; first compound 0.253 µM
  relative viability: 0.581
NCI-H727; first compound 0.8 µM
  relative viability: 0.596
NCI-H727; first compound 2.53 µM
  relative viability: 0.613
NCI-H727; first compound 8 µM
  relative viability: 0.525
NCI-H838; first compound 0.08 µM
  relative viability: 0.937
NCI-H838; first compound 0.253 µM
  relative viability: 0.946
NCI-H838; first compound 0.8 µM
  relative viability: 0.908
NCI-H838; first compound 2.53 µM
  relative viability: 0.938
NCI-H838; first compound 8 µM
  relative viability: 0.966
